Each structure is given as a SMILES string. Calls of active or inactive are those of the source.

Usually Ki stands for the dissociation constant of the complex between target and ligand, obtained from inhibition or displacement. By AC50 is commonly meant the concentration at which the activity in the assay is half-maximal. As usually defined, the EC50 is the concentration giving half of the maximal effect.

Test [1] addresses 1-phosphatidylinositol 4,5-bisphosphate phosphodiesterase beta-3 (Homo sapiens, UniProt Q01970). The test is described as follows: Fluorescence-based biochemical high throughput dose response assay to identify inhibitors of phospholipase C isozymes (PLC-B3).
Test [2] addresses 1-phosphatidylinositol 4,5-bisphosphate phosphodiesterase gamma-1 (Homo sapiens, UniProt P19174). In words: Counterscreen for inhibitors of phospholipase C isozymes (PLC-B3): Fluorescence-based biochemical high throughput dose response assay to identify inhibitors of phospholipase C isozymes (PLC-gamma1). (In general: A counterscreen serves to expose hits that act by an unwanted route or on another target.)

Test [3] concerns the target Major prion protein (Homo sapiens, UniProt P04156). It is filed as functional, cell-based.
Test [4] can be described thus: cells.
The target in test [5] is Disintegrin and metalloproteinase domain-containing protein 17 (Homo sapiens, UniProt P78536). The test is described as follows: exosite inhibitors of ADAM17, dose response, biochemical (AID 743260).
Disintegrin and metalloproteinase domain-containing protein 17, sequence (P78536 whole entry, the tested form may be a part): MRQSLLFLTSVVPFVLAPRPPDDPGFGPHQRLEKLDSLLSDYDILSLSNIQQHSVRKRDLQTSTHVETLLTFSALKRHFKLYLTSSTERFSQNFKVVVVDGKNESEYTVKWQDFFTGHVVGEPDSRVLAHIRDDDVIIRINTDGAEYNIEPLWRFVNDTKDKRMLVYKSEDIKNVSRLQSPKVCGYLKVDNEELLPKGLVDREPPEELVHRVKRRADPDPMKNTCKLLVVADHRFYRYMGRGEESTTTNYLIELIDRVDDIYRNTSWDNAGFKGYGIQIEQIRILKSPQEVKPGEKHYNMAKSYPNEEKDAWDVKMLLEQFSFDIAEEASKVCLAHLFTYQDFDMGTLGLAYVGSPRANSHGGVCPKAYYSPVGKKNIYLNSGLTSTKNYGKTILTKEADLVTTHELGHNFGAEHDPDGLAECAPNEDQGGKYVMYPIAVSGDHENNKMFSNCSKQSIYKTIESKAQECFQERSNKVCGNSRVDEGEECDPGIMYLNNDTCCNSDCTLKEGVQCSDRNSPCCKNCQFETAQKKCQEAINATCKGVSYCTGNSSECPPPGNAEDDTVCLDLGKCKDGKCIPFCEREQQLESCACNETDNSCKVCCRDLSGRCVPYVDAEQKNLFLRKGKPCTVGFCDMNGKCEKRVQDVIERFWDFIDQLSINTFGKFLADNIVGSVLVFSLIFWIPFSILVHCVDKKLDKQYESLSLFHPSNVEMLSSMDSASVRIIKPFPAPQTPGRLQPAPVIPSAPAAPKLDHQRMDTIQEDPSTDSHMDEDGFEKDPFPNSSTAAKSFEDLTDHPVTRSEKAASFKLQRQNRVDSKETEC
Test [6] addresses Tyrosine-protein phosphatase non-receptor type 5 (Homo sapiens, UniProt P54829). The test is described as follows: PTPN5 enzyme inhibition – biochemical, fluorescence intensity, uHTS hits, confirmation (AID 602372). In kind it is functional. The following applies: read-out: IC50_Mean.
Test [7] has as its target Tyrosine-protein phosphatase non-receptor type 11 (Homo sapiens, UniProt Q06124). The test is described as follows: PTPN11 enzyme inhibitors – biochemical, selectivity assay for STEP inhibitor project, dose response (AID 602367). In kind it is functional. The following applies: read-out: IC50_Mean.
Test [8] concerns the target T1, Carboxy-terminal domain RNA polymerase II polypeptide A small phosphatase 1 (Homo sapiens, UniProt Q9GZU7).
T1 sequence (Q9GZU7 whole entry): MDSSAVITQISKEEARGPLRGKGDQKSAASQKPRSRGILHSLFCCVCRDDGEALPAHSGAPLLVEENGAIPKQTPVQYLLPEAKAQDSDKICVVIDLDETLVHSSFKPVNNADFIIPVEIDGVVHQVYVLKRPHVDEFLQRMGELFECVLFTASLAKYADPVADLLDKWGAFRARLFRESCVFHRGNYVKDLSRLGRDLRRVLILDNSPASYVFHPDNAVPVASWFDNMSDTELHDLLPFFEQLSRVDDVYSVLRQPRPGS
The test is described as follows: CTDSP1 inhibitors, concentration-response, biochemical, absorbance readout, ultra-high-throughput screen actives (AID 540297). It is filed as functional.

Test [9] deals with Dual specificity protein phosphatase 3 (Homo sapiens, UniProt P51452). The test is described as follows: VHR phosphatase inhibition, dose response, selectivity assay for STEP inhibitor project, biochemical (AID 602374). It is filed as functional. The following applies: read-out: IC50_Mean.
Dual specificity protein phosphatase 3, sequence (P51452 whole entry): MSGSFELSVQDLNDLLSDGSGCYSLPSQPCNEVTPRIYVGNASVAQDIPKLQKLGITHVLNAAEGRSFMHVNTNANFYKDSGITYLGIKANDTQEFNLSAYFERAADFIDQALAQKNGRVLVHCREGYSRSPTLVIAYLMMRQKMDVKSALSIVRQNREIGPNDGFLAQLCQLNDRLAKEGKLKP
Test [10] is described as follows: inhibition of ADAM10 peptide cleavage – biochemical, FRET peptide substrate, recombinant human ADAM10, selectivity assay for ADAM17 exosite inhibitor project, dose response (AID 743259).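 Also: ADAM10 enzyme cleaving a FRET peptide substrate.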
The target in test [11] is fMet-Leu-Phe receptor (Homo sapiens, UniProt P21462). In words: formyl peptide receptor binders – dose response (AID 519). It is filed as functional.
fMet-Leu-Phe receptor, sequence (P21462 whole entry): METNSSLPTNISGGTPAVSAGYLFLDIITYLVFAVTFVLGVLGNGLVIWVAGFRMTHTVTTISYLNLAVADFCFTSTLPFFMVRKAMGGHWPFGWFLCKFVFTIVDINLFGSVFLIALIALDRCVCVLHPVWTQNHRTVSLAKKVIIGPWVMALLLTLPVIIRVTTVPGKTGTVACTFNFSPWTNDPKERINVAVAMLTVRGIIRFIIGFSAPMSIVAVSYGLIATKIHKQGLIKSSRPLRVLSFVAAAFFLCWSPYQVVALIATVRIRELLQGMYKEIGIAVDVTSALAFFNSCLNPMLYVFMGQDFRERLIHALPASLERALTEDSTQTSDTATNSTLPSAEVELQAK
Test [12] concerns the target T2, Apoptotic protease-activating factor 1 (Homo sapiens, UniProt O14727).
T2 sequence (O14727 whole entry): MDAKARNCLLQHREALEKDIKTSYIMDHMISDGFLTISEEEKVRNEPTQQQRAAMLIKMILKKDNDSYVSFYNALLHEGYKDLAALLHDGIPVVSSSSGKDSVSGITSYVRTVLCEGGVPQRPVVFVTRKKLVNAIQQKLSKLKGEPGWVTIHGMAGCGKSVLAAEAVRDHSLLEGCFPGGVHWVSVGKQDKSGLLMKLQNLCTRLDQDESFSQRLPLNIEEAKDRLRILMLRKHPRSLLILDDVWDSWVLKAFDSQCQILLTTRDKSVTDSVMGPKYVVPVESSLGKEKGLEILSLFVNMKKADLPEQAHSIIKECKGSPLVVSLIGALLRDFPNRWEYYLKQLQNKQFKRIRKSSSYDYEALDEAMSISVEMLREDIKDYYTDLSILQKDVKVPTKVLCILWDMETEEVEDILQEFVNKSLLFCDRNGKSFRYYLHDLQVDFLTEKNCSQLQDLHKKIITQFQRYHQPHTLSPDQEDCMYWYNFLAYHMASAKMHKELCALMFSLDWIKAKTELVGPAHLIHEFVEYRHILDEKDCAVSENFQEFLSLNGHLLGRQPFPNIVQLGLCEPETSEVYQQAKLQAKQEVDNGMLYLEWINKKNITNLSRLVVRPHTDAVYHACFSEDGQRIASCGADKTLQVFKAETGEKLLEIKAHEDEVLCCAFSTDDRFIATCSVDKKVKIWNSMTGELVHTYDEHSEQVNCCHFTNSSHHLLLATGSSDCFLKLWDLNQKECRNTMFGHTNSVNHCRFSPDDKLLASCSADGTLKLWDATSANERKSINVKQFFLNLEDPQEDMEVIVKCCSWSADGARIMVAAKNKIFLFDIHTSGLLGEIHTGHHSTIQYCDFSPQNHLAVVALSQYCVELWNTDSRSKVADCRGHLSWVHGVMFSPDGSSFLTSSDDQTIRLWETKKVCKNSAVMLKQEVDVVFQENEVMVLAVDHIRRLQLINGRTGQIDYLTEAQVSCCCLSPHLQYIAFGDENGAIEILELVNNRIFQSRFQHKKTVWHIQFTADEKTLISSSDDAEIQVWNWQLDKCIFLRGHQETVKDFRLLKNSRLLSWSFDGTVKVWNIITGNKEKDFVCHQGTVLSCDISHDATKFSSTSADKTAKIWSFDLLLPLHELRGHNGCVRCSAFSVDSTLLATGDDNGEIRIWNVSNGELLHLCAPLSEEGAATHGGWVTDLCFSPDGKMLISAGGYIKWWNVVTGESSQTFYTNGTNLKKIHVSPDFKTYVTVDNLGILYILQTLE
In kind it is functional.

Test [13] concerns the target Histone-lysine N-methyltransferase NSD2 (Homo sapiens, UniProt O96028). It is filed as biochemical.
In test [14] the target is Genome polyprotein (dengue virus type 2, UniProt P29990). The test is described as follows: flavivirus cap methylation enzyme inhibition – biochemical, confirmation dose response, primary screen (AID 588689). In kind it is functional.
The target in test [15] is T3, Protein RecA (Mycobacterium tuberculosis, UniProt P9WHJ3).
T3 sequence (P9WHJ3 whole entry): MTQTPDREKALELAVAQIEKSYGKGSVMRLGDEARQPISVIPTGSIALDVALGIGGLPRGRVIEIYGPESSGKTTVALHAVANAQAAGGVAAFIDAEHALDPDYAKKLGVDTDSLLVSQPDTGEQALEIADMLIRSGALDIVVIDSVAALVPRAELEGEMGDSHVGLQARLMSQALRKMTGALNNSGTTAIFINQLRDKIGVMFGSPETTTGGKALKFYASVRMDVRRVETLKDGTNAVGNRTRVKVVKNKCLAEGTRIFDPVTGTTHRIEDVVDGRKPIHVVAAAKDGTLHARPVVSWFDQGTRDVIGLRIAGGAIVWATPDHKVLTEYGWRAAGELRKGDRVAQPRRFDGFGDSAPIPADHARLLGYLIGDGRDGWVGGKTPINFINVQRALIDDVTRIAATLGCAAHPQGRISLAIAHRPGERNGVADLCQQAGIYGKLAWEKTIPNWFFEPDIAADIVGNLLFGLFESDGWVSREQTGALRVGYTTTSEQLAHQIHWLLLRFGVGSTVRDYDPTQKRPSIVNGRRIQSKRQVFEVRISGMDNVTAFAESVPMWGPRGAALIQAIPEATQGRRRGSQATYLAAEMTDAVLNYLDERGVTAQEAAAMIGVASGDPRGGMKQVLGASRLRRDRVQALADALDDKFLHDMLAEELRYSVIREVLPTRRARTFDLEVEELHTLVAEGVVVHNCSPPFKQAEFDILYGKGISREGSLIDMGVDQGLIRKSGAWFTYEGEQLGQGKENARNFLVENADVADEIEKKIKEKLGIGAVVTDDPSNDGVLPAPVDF
In words: Fluorescence Cell-Free Homogeneous Dose Retest to Identify Inhibitors of RecA-Intein Splicing Activity. [Related pubchem assays (depositor defined):AID2097, AID2223, AID489010, AID492950]. In kind it is functional.

Test [16] concerns the target T4, Replicative DNA helicase DnaB (Mycobacterium tuberculosis, UniProt P9WMR3).
T4 sequence (P9WMR3 whole entry): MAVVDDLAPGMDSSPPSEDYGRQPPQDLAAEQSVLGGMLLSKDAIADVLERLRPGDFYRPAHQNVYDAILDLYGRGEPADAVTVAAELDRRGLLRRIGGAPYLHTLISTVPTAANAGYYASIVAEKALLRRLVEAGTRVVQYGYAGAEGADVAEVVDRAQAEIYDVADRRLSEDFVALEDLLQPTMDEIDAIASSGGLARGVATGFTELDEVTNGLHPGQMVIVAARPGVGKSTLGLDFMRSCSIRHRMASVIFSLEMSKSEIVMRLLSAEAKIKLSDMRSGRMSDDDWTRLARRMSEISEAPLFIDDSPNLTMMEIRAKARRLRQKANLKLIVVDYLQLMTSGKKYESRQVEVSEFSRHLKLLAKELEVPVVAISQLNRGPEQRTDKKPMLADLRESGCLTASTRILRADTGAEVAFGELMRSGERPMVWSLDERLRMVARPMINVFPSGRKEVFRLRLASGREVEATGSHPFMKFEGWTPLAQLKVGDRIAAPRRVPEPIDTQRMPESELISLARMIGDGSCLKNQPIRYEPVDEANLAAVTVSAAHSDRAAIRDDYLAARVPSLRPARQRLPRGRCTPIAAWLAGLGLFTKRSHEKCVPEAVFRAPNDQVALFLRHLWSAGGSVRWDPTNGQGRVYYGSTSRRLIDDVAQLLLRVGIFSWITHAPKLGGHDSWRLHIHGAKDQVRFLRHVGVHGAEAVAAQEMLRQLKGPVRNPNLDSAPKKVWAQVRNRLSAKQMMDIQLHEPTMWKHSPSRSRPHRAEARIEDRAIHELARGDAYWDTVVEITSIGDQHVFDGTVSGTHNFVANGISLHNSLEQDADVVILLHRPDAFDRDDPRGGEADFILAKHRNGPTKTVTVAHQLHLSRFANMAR
In words: DnaB intein splicing inhibitors, dose response, biochemical, cell-free fluorescence (AID 449749). It is filed as functional.

1-phosphatidylinositol 4,5-bisphosphate phosphodiesterase gamma-1, sequence (P19174 whole entry): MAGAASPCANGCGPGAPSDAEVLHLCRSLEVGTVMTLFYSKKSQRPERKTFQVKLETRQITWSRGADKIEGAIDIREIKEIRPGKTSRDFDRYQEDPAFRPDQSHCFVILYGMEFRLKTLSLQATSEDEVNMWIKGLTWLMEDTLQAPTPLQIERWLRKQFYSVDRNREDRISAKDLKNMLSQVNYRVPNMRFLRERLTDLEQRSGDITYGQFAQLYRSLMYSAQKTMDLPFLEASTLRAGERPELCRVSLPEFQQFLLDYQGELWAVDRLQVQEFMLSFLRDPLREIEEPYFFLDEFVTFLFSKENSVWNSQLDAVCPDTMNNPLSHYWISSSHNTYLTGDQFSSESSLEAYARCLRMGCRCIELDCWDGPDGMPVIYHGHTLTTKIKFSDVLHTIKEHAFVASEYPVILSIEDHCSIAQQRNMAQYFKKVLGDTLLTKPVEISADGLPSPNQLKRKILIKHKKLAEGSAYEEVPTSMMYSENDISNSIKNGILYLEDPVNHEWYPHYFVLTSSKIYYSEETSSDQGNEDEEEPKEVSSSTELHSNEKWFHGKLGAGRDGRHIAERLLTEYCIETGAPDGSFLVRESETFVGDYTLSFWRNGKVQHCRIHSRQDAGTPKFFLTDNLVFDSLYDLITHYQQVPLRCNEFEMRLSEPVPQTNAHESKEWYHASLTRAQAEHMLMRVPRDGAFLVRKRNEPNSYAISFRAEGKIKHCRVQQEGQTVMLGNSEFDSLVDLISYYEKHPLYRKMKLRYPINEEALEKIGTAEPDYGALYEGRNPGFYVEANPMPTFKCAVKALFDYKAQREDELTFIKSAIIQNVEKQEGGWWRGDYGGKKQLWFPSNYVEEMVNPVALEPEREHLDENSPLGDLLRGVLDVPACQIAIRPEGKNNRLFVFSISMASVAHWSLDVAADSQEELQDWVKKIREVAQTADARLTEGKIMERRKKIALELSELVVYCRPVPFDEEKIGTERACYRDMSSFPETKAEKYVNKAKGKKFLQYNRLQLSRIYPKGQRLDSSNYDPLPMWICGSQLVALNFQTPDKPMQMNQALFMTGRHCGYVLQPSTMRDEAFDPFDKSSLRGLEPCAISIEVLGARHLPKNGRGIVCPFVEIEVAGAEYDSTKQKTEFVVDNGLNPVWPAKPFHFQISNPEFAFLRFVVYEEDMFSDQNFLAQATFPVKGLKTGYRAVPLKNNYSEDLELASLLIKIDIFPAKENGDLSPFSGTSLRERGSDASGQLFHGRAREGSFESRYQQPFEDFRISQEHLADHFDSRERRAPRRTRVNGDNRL
1-phosphatidylinositol 4,5-bisphosphate phosphodiesterase beta-3, sequence (Q01970 whole entry): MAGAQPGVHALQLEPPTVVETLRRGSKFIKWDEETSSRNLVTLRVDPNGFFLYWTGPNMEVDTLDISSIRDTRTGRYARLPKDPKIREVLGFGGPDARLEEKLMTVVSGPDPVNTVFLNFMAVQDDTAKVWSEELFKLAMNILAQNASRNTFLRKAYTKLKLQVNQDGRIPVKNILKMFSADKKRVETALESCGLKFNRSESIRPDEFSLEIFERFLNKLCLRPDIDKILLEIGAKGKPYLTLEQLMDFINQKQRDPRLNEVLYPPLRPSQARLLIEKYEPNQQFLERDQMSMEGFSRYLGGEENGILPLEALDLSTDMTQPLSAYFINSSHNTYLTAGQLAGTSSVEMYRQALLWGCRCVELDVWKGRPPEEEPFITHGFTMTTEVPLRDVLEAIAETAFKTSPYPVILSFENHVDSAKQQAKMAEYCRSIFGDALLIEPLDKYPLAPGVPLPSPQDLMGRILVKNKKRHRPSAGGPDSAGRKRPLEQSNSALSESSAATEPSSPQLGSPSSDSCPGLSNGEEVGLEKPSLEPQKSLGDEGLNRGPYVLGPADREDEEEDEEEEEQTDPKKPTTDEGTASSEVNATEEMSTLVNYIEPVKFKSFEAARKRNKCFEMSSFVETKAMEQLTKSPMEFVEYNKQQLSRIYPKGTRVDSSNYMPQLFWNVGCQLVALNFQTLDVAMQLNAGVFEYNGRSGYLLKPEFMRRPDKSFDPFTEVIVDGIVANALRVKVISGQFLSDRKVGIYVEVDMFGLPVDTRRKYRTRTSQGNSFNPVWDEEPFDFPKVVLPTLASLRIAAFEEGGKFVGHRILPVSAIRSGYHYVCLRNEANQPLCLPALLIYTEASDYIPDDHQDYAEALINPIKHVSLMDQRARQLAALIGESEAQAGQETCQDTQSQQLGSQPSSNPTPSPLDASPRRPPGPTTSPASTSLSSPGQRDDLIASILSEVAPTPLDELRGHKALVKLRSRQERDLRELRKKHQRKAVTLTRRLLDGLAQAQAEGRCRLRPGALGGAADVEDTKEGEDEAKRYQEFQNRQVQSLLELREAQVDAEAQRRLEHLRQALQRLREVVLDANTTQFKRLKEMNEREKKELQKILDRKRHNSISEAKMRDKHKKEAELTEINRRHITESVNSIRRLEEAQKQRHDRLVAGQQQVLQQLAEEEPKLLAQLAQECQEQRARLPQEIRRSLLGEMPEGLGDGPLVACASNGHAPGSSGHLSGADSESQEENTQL
Tyrosine-protein phosphatase non-receptor type 11, sequence (Q06124 whole entry, the tested form may be a part): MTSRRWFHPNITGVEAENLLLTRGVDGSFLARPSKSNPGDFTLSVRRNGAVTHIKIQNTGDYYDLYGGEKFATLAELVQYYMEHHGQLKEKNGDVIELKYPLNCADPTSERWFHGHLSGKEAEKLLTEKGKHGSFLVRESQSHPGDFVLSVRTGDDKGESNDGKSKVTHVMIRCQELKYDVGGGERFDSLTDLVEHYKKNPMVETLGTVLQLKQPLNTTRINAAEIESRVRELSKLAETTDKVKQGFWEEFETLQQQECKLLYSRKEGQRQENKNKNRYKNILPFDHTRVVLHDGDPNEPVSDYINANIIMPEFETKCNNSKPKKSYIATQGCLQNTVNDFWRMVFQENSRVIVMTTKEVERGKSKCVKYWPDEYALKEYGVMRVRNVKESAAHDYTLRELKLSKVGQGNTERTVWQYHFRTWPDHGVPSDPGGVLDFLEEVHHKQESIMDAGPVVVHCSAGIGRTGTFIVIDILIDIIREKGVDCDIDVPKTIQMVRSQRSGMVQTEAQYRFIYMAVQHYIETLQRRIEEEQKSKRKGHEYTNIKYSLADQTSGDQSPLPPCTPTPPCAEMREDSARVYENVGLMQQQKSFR
Tyrosine-protein phosphatase non-receptor type 5, sequence (P54829 whole entry): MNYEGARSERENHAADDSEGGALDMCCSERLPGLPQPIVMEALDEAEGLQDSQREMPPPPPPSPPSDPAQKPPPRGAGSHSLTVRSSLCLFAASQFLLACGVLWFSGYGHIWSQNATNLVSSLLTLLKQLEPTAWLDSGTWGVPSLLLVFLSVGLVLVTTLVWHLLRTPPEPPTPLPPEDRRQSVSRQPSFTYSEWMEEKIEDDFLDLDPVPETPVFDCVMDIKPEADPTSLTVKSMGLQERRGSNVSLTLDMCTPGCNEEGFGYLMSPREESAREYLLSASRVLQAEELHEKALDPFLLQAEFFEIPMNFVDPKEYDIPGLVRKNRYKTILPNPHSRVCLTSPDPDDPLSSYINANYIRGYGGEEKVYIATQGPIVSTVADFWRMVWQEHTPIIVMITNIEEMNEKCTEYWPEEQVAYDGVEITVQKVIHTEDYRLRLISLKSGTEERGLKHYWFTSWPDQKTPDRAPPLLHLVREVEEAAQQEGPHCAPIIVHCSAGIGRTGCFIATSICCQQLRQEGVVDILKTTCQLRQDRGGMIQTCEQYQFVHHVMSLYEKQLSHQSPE

Regarding `CC(C)(C)c1cc(C(=O)NNC(=O)Nc2ccccc2)n(Cc2ccccc2)n1`, the IC50 in [1] and in [2] was > 122 µM (inactive) throughout.
`Cc1cc(NC(=O)C(C)Sc2nc(-c3cccs3)nc3ccccc23)no1` (stereo not drawn): the IC50 was 1.7 µM (active) in test [3] and > 138 µM (inactive) in test [4].
As for `CCN(c1ccccc1)S(=O)(=O)c1cc(C(=O)OC(C)C(=O)Nc2ccc3c(c2)OCCO3)ccc1C` (stereo not drawn), the IC50 in [5] was > 69.5 µM (inactive); in test [6], > 80 µM (inactive); in test [7], 2.47 µM (active); in test [8], 4.38 µM (active); in test [9], 5.05 µM (active); in test [10], > 7.72 µM (active).
In the case of `Cc1ccc(C(=O)C2=C(O)C(=O)N(CCN3CCOCC3)C2c2cccnc2)cc1` (stereo not drawn), the Ki in [11] was > 66.7 µM (inactive).
With `Cc1ccc(-n2c(C3CC3c3ccc(Cl)cc3)n[nH]c2=S)cc1` (stereo not drawn), in test [5], the IC50 is > 69.5 µM (inactive).
Take `Cc1ccc(-n2c(S)nnc2C2CC2c2ccc(Cl)cc2)cc1` (stereo not drawn): the IC50 in [10] was > 69.5 µM (inactive).
Consider `Cc1ccc(NC(=O)c2oc3ccc(S(=O)(=O)N4CCOCC4)cc3c2C)cc1C`, for which, in [11], the Ki is > 66.7 µM (inactive).
With `Cc1ccc(Cc2c(-c3ccco3)nc3c(C)cc(Br)cn23)cc1`, the IC50 in [3] was 9.95 µM (active); in test [4], 78.6 µM (inactive).
Consider `CC(C)(C)c1ccc(S(=O)(=O)/N=C2\C=C(NS(=O)(=O)c3ccccc3)C(=O)c3ccccc32)cc1`, for which the IC50 in [12] is 15 µM (active); in [14], 25.5 µM (active). Moreover, the AC50 was 3.73 µM (active) in test [13] and 4.68 µM (active) in test [16]. For the same molecule, the half-maximal effective concentration (EC50) in [15] was 4.85 µM (active).
As for `COC(=O)C(C(=O)OC)[C@H]1C=C[C@@H](C(=O)NS(=O)(=O)c2ccc(C)cc2)N(C(C)=O)C1`, the IC50 is > 122 µM (inactive) in test [1] and 2.03 µM (active) in test [2].

For the origin of these results see ChEMBL document CHEMBL1201862, “PubChem BioAssay data set” (2004).
